Laboratory results as given in ChEMBL document CHEMBL1201862, “PubChem BioAssay data set” (2004).
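Dose response: 5 concentrations. Exposure: 48 h. Format: 96-well plates. Endpoint: linear interpolation; highest concentration if not reached. GI50 = concentration required for 50% inhibition of growth.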 Active and inactive are the calls of the source. Cut-off read from the data, not from the text of the source: active = GI50 up to about 1.1 µM and inactive = higher.

What was measured:
Test in all cases: NCI tumour cell line growth inhibition, 48 h
[1] = tested on: 786-0
[2] = tested on: A549
[3] = tested on: ACHN
[4] = tested on: BT-549
[5] = tested on: CAKI-1
[6] = tested on: CCRF-CEM
[7] = tested on: COLO 205
[8] = tested on: DU-145
[9] = tested on: EKVX
[10] = tested on: HCC 2998
[11] = tested on: HCT-116
[12] = tested on: HCT-15
[13] = tested on: HL-60
[14] = tested on: HOP-62
[15] = tested on: HOP-92
[16] = tested on: HT-29
[17] = tested on: Hs-578T
[18] = tested on: IGROV-1
[19] = tested on: K562
[20] = tested on: KM12
[21] = tested on: LOX IMVI
[22] = tested on: M14
[23] = tested on: MCF7
[24] = tested on: MDA-MB-231
[25] = tested on: MDA-MB-435
[26] = tested on: MDA-N
[27] = tested on: MOLT-4
[28] = tested on: NCI-H226
[29] = tested on: NCI-H23
[30] = tested on: NCI-H460
[31] = tested on: NCI-H522
[32] = tested on: NCI/ADR-RES
[33] = tested on: OVCAR-3
[34] = tested on: OVCAR-4
[35] = tested on: OVCAR-5
[36] = tested on: OVCAR-8
[37] = tested on: PC-3
[38] = tested on: RXF 393
[39] = tested on: SF-268
[40] = tested on: SF-295
[41] = tested on: SF-539
[42] = tested on: SK-MEL-28
[43] = tested on: SK-MEL-5
[44] = tested on: SK-OV-3
[45] = tested on: SN12C
[46] = tested on: SNB-19
[47] = tested on: SNB-75
[48] = tested on: SR
[49] = tested on: SW-620
[50] = tested on: T47D
[51] = tested on: TK-10
[52] = tested on: U-251
[53] = tested on: UACC-257
[54] = tested on: UACC-62
[55] = tested on: UO-31
[56] = tested on: Malme-3M
[57] = tested on: RPMI-8226
[58] = tested on: SK-MEL-2
[59] = tested on: A498

CC1=CC(C/C(C)=C/COc2ccc3ccc(=O)oc3c2)OC1=O (centres undefined)
GI50 [1]: > 100 µM (inactive) | GI50 [2]: > 100 µM (inactive) | GI50 [3]: > 100 µM (inactive) | GI50 [4]: 76.2 µM (inactive) | GI50 [5]: > 100 µM (inactive) | GI50 [6]: > 100 µM (inactive) | GI50 [7]: > 100 µM (inactive) | GI50 [8]: > 100 µM (inactive) | GI50 [9]: > 100 µM (inactive) | GI50 [10]: > 100 µM (inactive) | GI50 [11]: 92.7 µM (inactive) | GI50 [12]: 95.9 µM | GI50 [13]: 59.4 µM (inactive) | GI50 [14]: > 100 µM (inactive) | GI50 [15]: > 100 µM (inactive) | GI50 [16]: > 100 µM (inactive) | GI50 [17]: > 100 µM (inactive) | GI50 [18]: > 100 µM (inactive) | GI50 [19]: 59.8 µM (inactive) | GI50 [20]: > 100 µM (inactive) | GI50 [21]: > 100 µM (inactive) | GI50 [22]: > 100 µM (inactive) | GI50 [23]: > 100 µM (inactive) | GI50 [24]: 5.66 µM (inactive) | GI50 [25]: 54.5 µM (inactive) | GI50 [26]: 68.9 µM (inactive) | GI50 [27]: 49.8 µM (inactive) | GI50 [28]: > 100 µM (inactive) | GI50 [29]: 50.7 µM (inactive) | GI50 [30]: > 100 µM (inactive) | GI50 [31]: > 100 µM (inactive) | GI50 [32]: 27.4 µM (inactive) | GI50 [33]: > 100 µM (inactive) | GI50 [34]: > 100 µM (inactive) | GI50 [35]: > 100 µM (inactive) | GI50 [36]: > 100 µM (inactive) | GI50 [37]: 68.9 µM (inactive) | GI50 [38]: > 100 µM (inactive) | GI50 [39]: > 100 µM (inactive) | GI50 [40]: > 100 µM (inactive) | GI50 [41]: > 100 µM (inactive) | GI50 [42]: > 100 µM (inactive) | GI50 [43]: 53.6 µM (inactive) | GI50 [44]: > 100 µM (inactive) | GI50 [45]: > 100 µM (inactive) | GI50 [46]: > 100 µM (inactive) | GI50 [47]: > 100 µM (inactive) | GI50 [48]: 95.1 µM (inactive) | GI50 [49]: > 100 µM (inactive) | GI50 [50]: > 100 µM (inactive) | GI50 [51]: > 100 µM (inactive) | GI50 [52]: 90.4 µM (inactive) | GI50 [53]: 47.4 µM (inactive) | GI50 [54]: > 100 µM (inactive) | GI50 [55]: > 100 µM (inactive)

Cn1c2ccccc2c(=O)c2cccc(C(=O)NCC(=O)O)c21
GI50 [1]: > 100 µM (inactive) | GI50 [2]: > 100 µM (inactive) | GI50 [3]: > 100 µM (inactive) | GI50 [4]: > 100 µM (inactive) | GI50 [7]: > 100 µM (inactive) | GI50 [8]: > 100 µM (inactive) | GI50 [9]: 36.8 µM (inactive) | GI50 [10]: > 100 µM (inactive) | GI50 [11]: > 100 µM (inactive) | GI50 [12]: > 100 µM | GI50 [14]: > 100 µM (inactive) | GI50 [16]: > 100 µM (inactive) | GI50 [17]: > 100 µM (inactive) | GI50 [18]: 85.1 µM (inactive) | GI50 [19]: > 100 µM (inactive) | GI50 [20]: > 100 µM (inactive) | GI50 [21]: 71.3 µM (inactive) | GI50 [22]: > 100 µM (inactive) | GI50 [23]: > 100 µM (inactive) | GI50 [24]: > 100 µM (inactive) | GI50 [25]: > 100 µM (inactive) | GI50 [26]: > 100 µM (inactive) | GI50 [27]: > 100 µM (inactive) | GI50 [56]: > 100 µM (inactive) | GI50 [28]: 85.9 µM (inactive) | GI50 [29]: > 100 µM (inactive) | GI50 [30]: > 100 µM (inactive) | GI50 [32]: 60.3 µM (inactive) | GI50 [33]: > 100 µM (inactive) | GI50 [34]: > 100 µM (inactive) | GI50 [35]: > 100 µM (inactive) | GI50 [36]: > 100 µM (inactive) | GI50 [37]: > 100 µM (inactive) | GI50 [57]: > 100 µM (inactive) | GI50 [39]: > 100 µM (inactive) | GI50 [40]: > 100 µM (inactive) | GI50 [41]: > 100 µM (inactive) | GI50 [42]: > 100 µM (inactive) | GI50 [58]: > 100 µM (inactive) | GI50 [43]: > 100 µM (inactive) | GI50 [44]: > 100 µM (inactive) | GI50 [45]: > 100 µM (inactive) | GI50 [46]: > 100 µM (inactive) | GI50 [47]: 88.9 µM (inactive) | GI50 [48]: > 100 µM (inactive) | GI50 [49]: > 100 µM (inactive) | GI50 [50]: > 100 µM (inactive) | GI50 [51]: > 100 µM (inactive) | GI50 [52]: > 100 µM (inactive) | GI50 [53]: > 100 µM (inactive) | GI50 [54]: > 100 µM (inactive) | GI50 [55]: > 100 µM (inactive)

NC(C(=O)OC(=O)c1ccccc1)C(=O)OC(=O)c1ccccc1
GI50 [1]: > 100 µM (inactive) | GI50 [59]: > 100 µM (inactive) | GI50 [2]: > 100 µM (inactive) | GI50 [3]: > 100 µM (inactive) | GI50 [4]: > 100 µM (inactive) | GI50 [5]: > 100 µM (inactive) | GI50 [6]: > 100 µM (inactive) | GI50 [7]: > 100 µM (inactive) | GI50 [8]: > 100 µM (inactive) | GI50 [9]: > 100 µM (inactive) | GI50 [11]: > 100 µM (inactive) | GI50 [12]: > 100 µM | GI50 [14]: > 100 µM (inactive) | GI50 [16]: > 100 µM (inactive) | GI50 [17]: 59.3 µM (inactive) | GI50 [19]: > 100 µM (inactive) | GI50 [20]: > 100 µM (inactive) | GI50 [21]: > 100 µM (inactive) | GI50 [22]: > 100 µM (inactive) | GI50 [23]: > 100 µM (inactive) | GI50 [24]: > 100 µM (inactive) | GI50 [25]: > 100 µM (inactive) | GI50 [26]: > 10 µM (inactive) | GI50 [27]: > 100 µM (inactive) | GI50 [56]: > 100 µM (inactive) | GI50 [28]: > 100 µM (inactive) | GI50 [29]: > 100 µM (inactive) | GI50 [30]: > 100 µM (inactive) | GI50 [31]: > 100 µM (inactive) | GI50 [32]: > 100 µM (inactive) | GI50 [33]: > 100 µM (inactive) | GI50 [34]: > 100 µM (inactive) | GI50 [35]: > 100 µM (inactive) | GI50 [36]: > 100 µM (inactive) | GI50 [37]: > 100 µM (inactive) | GI50 [57]: > 100 µM (inactive) | GI50 [38]: > 100 µM (inactive) | GI50 [39]: > 100 µM (inactive) | GI50 [40]: > 100 µM (inactive) | GI50 [41]: > 100 µM (inactive) | GI50 [42]: > 100 µM (inactive) | GI50 [58]: > 100 µM (inactive) | GI50 [43]: > 100 µM (inactive) | GI50 [45]: > 100 µM (inactive) | GI50 [46]: > 100 µM (inactive) | GI50 [47]: > 100 µM (inactive) | GI50 [49]: > 100 µM (inactive) | GI50 [50]: > 100 µM (inactive) | GI50 [51]: > 100 µM (inactive) | GI50 [52]: > 100 µM (inactive) | GI50 [53]: > 100 µM (inactive) | GI50 [55]: > 100 µM (inactive)
